Laboratory results reported in the supplement of paper PMC11208160.

Test: recombinant UMI read abundance after kanamycin selection (control-corrected) (log10(CPM+1)); higher = more efficient recombination; extreme values may be limits of the assay; sequences stand for … in AGTGCAGAGAAAATCGGCCAGTTTTCTCTGCCTGCAGTCCGCATGCCGTGGGACCCCTTGGGTTCTAACCTGTTGCCTAGATTTATGCAGCGGACTGCCTTTCTCCCAAAGTGATAAACCGG…AGGTTGGTTTCACT; site = the 11-nt donor
Method in brief: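 The measure is log10(CPM+1) for recombinant UMIs. These were PCR-amplified across the donor–target junction and sequenced after Escherichia coli carrying a donor and donor-binding-loop pair library and a target plasmid with T7-inducible IS621 bridge recombinase was plated on IPTG (0.07 mM) plus kanamycin or unselected. CPM were averaged over two replicates and scaled by control-derived factors.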
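Further: IS621 bridge recombinase in Escherichia coli cells against a fixed T5 target plasmid.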

Row | Sequence | recombinant UMI read abundance (log10)
1 | CCCATATCATGGACCGGTTTTCCCGGTAATCCGTATTTGTT (site CCCATATCTAA) | 1.01
2 | CCCATATCATGGACCGGTTTTCCCGGTAATCCGTATTTGTT (site CCCATATCTCA) | 0.0132
3 | CCCATATCATGGACCGGTTTTCCCGGTAATCCGTATTTGTT (site CCCATATCTGA) | 0
4 | CCCATATCATGGACCGGTTTTCCCGGTAATCCGTATTTGTT (site CCCATATCTTA) | 0
5 | CCCATCTCATGGACCGGTTTTCCCGGTAATCCGTATTTGGG (site CCCATCTCTCC) | 0
6 | CCCATCTCATGGACCGGTTTTCCCGGTAATCCGTATTTGGG (site CCCCTCTCTCC) | 0.078
7 | CCCATCTCATGGACCGGTTTTCCCGGTAATCCGTATTTGGG (site CCCGTCTCTCC) | 0.00519
8 | CCCATCTCATGGACCGGTTTTCCCGGTAATCCGTATTTGGG (site CCCTTCTCTCC) | 0.0111
9 | CCCCACACATGGACCGGTTTTCCCGGTAATCCGTATTTGGA (site CCCCACACTTA) | 0.369
10 | CCCCACACATGGACCGGTTTTCCCGGTAATCCGTATTTGGA (site CCCCACACTTC) | 0.275
11 | CCCCACACATGGACCGGTTTTCCCGGTAATCCGTATTTGGA (site CCCCACACTTG) | 0
12 | CCCCACACATGGACCGGTTTTCCCGGTAATCCGTATTTGGA (site CCCCACACTTT) | 0
13 | CCCCACACATGGACCGGTTTTCCCGGTAATCCGTATTTGTG (site CCCCACACTAA) | 0.0034
14 | CCCCACACATGGACCGGTTTTCCCGGTAATCCGTATTTGTG (site CCCCACACTCA) | 0.00514
15 | CCCCACACATGGACCGGTTTTCCCGGTAATCCGTATTTGTG (site CCCCACACTGA) | 0
16 | CCCCACACATGGACCGGTTTTCCCGGTAATCCGTATTTGTG (site CCCCACACTTA) | 0.0257
17 | CCCCACTCATGGACCGGTTTTCCCGGTAATCCGTATTTGTA (site CCCCACACTTA) | 0
18 | CCCCACTCATGGACCGGTTTTCCCGGTAATCCGTATTTGTA (site CCCCACCCTTA) | 0.00571
19 | CCCCACTCATGGACCGGTTTTCCCGGTAATCCGTATTTGTA (site CCCCACGCTTA) | 0.00566
20 | CCCCACTCATGGACCGGTTTTCCCGGTAATCCGTATTTGTA (site CCCCACTCTTA) | 2.01
21 | CCCCATTCATGGACCGGTTTTCCCGGTAATCCGTATTTGGA (site CCCCATTCTTC) | 0.274
22 | CCCCCTACATGGACCGGTTTTCCCGGTAATCCGTATTTGAG (site CACCCTACTCT) | 0.0202
23 | CCCCCTACATGGACCGGTTTTCCCGGTAATCCGTATTTGAG (site CCCCCTACTCT) | 0.0375
24 | CCCCCTACATGGACCGGTTTTCCCGGTAATCCGTATTTGAG (site CGCCCTACTCT) | 0.0197
25 | CCCCCTACATGGACCGGTTTTCCCGGTAATCCGTATTTGAG (site CTCCCTACTCT) | 0.011

Row | Sequence | recombinant UMI read abundance (log10)
26 | CCCCGGGCATGGACCGGTTTTCCCGGTAATCCGTATTTGGG (site CCCCGGGCTCC) | 0.182
27 | CCCGAAGCATGGACCGGTTTTCCCGGTAATCCGTATTTGTT (site CCCGAAGCTAA) | 1.18
28 | CCCGAGACATGGACCGGTTTTCCCGGTAATCCGTATTTGGT (site CCCGAGACTAC) | 0.543
29 | CCCGATCCATGGACCGGTTTTCCCGGTAATCCGTATTTGTG (site CCCGATCCTCA) | 1.73
30 | CCCGCACCATGGACCGGTTTTCCCGGTAATCCGTATTTGCA (site CCCGCACCTTG) | 0
31 | CCCGCCACATGGACCGGTTTTCCCGGTAATCCGTATTTGCC (site CCCGCCACTGG) | 2.07
32 | CCCGCGGCATGGACCGGTTTTCCCGGTAATCCGTATTTGGG (site CCCGCGGCTCC) | 0.0266
33 | CCCGGTCCATGGACCGGTTTTCCCGGTAATCCGTATTTGCA (site ACCGGTCCTTG) | 0
34 | CCCGGTCCATGGACCGGTTTTCCCGGTAATCCGTATTTGCA (site CACGGTCCTTG) | 0
35 | CCCGGTCCATGGACCGGTTTTCCCGGTAATCCGTATTTGCA (site CCAGGTCCTTG) | 0
36 | CCCGGTCCATGGACCGGTTTTCCCGGTAATCCGTATTTGCA (site CCCAGTCCTTG) | 0
37 | CCCGGTCCATGGACCGGTTTTCCCGGTAATCCGTATTTGCA (site CCCCGTCCTTG) | 0.0143
38 | CCCGGTCCATGGACCGGTTTTCCCGGTAATCCGTATTTGCA (site CCCGATCCTTG) | 0
39 | CCCGGTCCATGGACCGGTTTTCCCGGTAATCCGTATTTGCA (site CCCGCTCCTTG) | 0
40 | CCCGGTCCATGGACCGGTTTTCCCGGTAATCCGTATTTGCA (site CCCGGACCTTG) | 0
41 | CCCGGTCCATGGACCGGTTTTCCCGGTAATCCGTATTTGCA (site CCCGGCCCTTG) | 0
42 | CCCGGTCCATGGACCGGTTTTCCCGGTAATCCGTATTTGCA (site CCCGGGCCTTG) | 0.00671
43 | CCCGGTCCATGGACCGGTTTTCCCGGTAATCCGTATTTGCA (site CCCGGTACTTG) | 0
44 | CCCGGTCCATGGACCGGTTTTCCCGGTAATCCGTATTTGCA (site CCCGGTCCTAG) | 0
45 | CCCGGTCCATGGACCGGTTTTCCCGGTAATCCGTATTTGCA (site CCCGGTCCTCG) | 0
46 | CCCGGTCCATGGACCGGTTTTCCCGGTAATCCGTATTTGCA (site CCCGGTCCTGG) | 0
47 | CCCGGTCCATGGACCGGTTTTCCCGGTAATCCGTATTTGCA (site CCCGGTCCTTA) | 0.0178
48 | CCCGGTCCATGGACCGGTTTTCCCGGTAATCCGTATTTGCA (site CCCGGTCCTTC) | 0
49 | CCCGGTCCATGGACCGGTTTTCCCGGTAATCCGTATTTGCA (site CCCGGTCCTTG) | 0
50 | CCCGGTCCATGGACCGGTTTTCCCGGTAATCCGTATTTGCA (site CCCGGTCCTTT) | 0.0121

Row | Sequence | recombinant UMI read abundance (log10)
51 | CCCGGTCCATGGACCGGTTTTCCCGGTAATCCGTATTTGCA (site CCCGGTGCTTG) | 0
52 | CCCGGTCCATGGACCGGTTTTCCCGGTAATCCGTATTTGCA (site CCCGGTTCTTG) | 0
53 | CCCGGTCCATGGACCGGTTTTCCCGGTAATCCGTATTTGCA (site CCCGTTCCTTG) | 0
54 | CCCGGTCCATGGACCGGTTTTCCCGGTAATCCGTATTTGCA (site CCCTGTCCTTG) | 0.00802
55 | CCCGGTCCATGGACCGGTTTTCCCGGTAATCCGTATTTGCA (site CCGGGTCCTTG) | 0.00973
56 | CCCGGTCCATGGACCGGTTTTCCCGGTAATCCGTATTTGCA (site CCTGGTCCTTG) | 0.00597
57 | CCCGGTCCATGGACCGGTTTTCCCGGTAATCCGTATTTGCA (site CGCGGTCCTTG) | 0
58 | CCCGGTCCATGGACCGGTTTTCCCGGTAATCCGTATTTGCA (site CTCGGTCCTTG) | 0.00601
59 | CCCGGTCCATGGACCGGTTTTCCCGGTAATCCGTATTTGCA (site GCCGGTCCTTG) | 0
60 | CCCGGTCCATGGACCGGTTTTCCCGGTAATCCGTATTTGCA (site TCCGGTCCTTG) | 0.00534
61 | CCCGGTCCATGGACCGGTTTTCCCGGTAATCCGTATTTGCT (site CCCGGTCCTAG) | 0
62 | CCCGGTCCATGGACCGGTTTTCCCGGTAATCCGTATTTGCT (site CCCGGTCCTCG) | 0.0027
63 | CCCGGTCCATGGACCGGTTTTCCCGGTAATCCGTATTTGCT (site CCCGGTCCTGG) | 0
64 | CCCGGTCCATGGACCGGTTTTCCCGGTAATCCGTATTTGCT (site CCCGGTCCTTG) | 0
65 | CCCGGTCCATGGACCGGTTTTCCCGGTAATCCGTATTTGTA (site CCCGGTCCTTA) | 0
66 | CCCGGTCCATGGACCGGTTTTCCCGGTAATCCGTATTTGTA (site CCCGGTCCTTC) | 0.0127
67 | CCCGGTCCATGGACCGGTTTTCCCGGTAATCCGTATTTGTA (site CCCGGTCCTTG) | 0
68 | CCCGGTCCATGGACCGGTTTTCCCGGTAATCCGTATTTGTA (site CCCGGTCCTTT) | 0.041
69 | CCCGTATCATGGACCGGTTTTCCCGGTAATCCGTATTTGGT (site CCCGTATCTAC) | 0.563
70 | CCCGTCGCATGGACCGGTTTTCCCGGTAATCCGTATTTGCT (site CCCGTCGCTAG) | 0.795
71 | CCCTACACATGGACCGGTTTTCCCGGTAATCCGTATTTGTA (site CCCAACACTTA) | 0.0262
72 | CCCTACACATGGACCGGTTTTCCCGGTAATCCGTATTTGTA (site CCCCACACTTA) | 0.00329
73 | CCCTACACATGGACCGGTTTTCCCGGTAATCCGTATTTGTA (site CCCGACACTTA) | 0.0499
74 | CCCTACACATGGACCGGTTTTCCCGGTAATCCGTATTTGTA (site CCCTACACTTA) | 0.0328
75 | CCCTAGCCATGGACCGGTTTTCCCGGTAATCCGTATTTGTC (site CCCTAGCCTGA) | 0.265
